Results on twelve compounds are retold here after US5231089A, “Method of improving oral bioavailability of carbamazepine” (priority 1992, dated 1993).

Read-outs that look alike come from different tables or passages of the source.

The conditions of data set [1]: dog, in vivo.
Data set [2] deals with generalized tonic-clonic seizures. The following applies: human, in vivo; cited from earlier work.
Data set [3] deals with maximal electroshock seizure (MES) test models. As to conditions: in vivo; cited from earlier work.
For data set [4] the following is noted: cited from earlier work; for Absolute bioavailability: 100 mg 2% oral suspension vs intravenous infusion (Gerardin et al).
The conditions of data set [5]: cited from earlier work.
For data set [6] the following is noted: cited from earlier work; for solubilization in water: 15 mg/mL hydroxypropyl-β-cyclodextrin (Uekama et al).
The conditions of data set [7]: with water-soluble β-cyclodextrin epichlorohydrin polymer; cited from earlier work.
For data set [8] the following is noted: in vivo; cited from earlier work.
Where [9] appears, read: healthy human subjects (Neuvonen et al).

As for `NC(=O)N1c2ccccc2C=Cc2ccccc21` [TEGRETOL], in data set [1], the “coefficient of variation around the AUC” value is 78% and the “coefficient of variation of Cmax” value is reported as 71%.
As for `NC(=O)N1c2ccccc2C=Cc2ccccc21` [carbamazepine, 5H-dibenz[b,f]azepine-5-carboxamide], the “efficacy in generalized tonic-clonic seizures (grand mal)” value in data set [2] is “proven efficacy”. Besides, in data set [3], the “effectiveness in MES test models” value is “effective”. The “total bioavailability (area under the curve)” value in data set [4] (Australian tablets 1977 vs since 1980 (Eadie et al)) is listed as “no significant difference in total bioavailability”. The “oral absorption, adequacy” value in data set [4] (Goodman and Gilman) is “adequate”. For the same compound, the “plasma levels, 200 or 400 mg tablets” value in data set [4] (epileptic patients (Monaco et al)) is “no difference in plasma levels”. Moreover, in data set [4] (setting [9]), the “absorption, rectal versus oral” value is “significantly slower” and the “total bioavailability, rectal versus oral” value is reported as “similar”. Moreover, the “bioavailability from the oral suspension versus intravenous” value in data set [4] (healthy male volunteers (Gerardin et al)) was “equivalent”. Moreover, the oral absorption result in data set [4] (rate/regularity, in words) was “slow and somewhat erratic”. Also, the Absolute bioavailability in data set [4] (subject 1) was 102.3%. For the same compound, the Absolute bioavailability in data set [4] (subject 2) is 100.1%. Moreover, in data set [5] (effects associated with phenytoin), the “gingival hypertropy, hirsutism, acne” value is “does not precipitate”. Moreover, in data set [5] (human, in vivo), the Therapeutic plasma levels was 4 to 10 µg/mL; the “level at which diplopia, dizziness, drowsiness and ataxia occur” value was “above 6 μg/mL”; the sedation result is reported as “less sedating”; the “serum level at which nystagmus may occur” value is on record as “below the therapeutic range”. Moreover, in data set [6] (no cyclodextrin), the “water solubility of carbamazepine” value was “extremely poor water solubility”.
Regarding `CCCCCCNC(=O)n1cc(F)c(=O)[nH]c1=O` [carmofur], the solubilization in water result in data set [6] was “improved solubilization”.
As to `C[C@H]1O[C@@H](O[C@H]2[C@@H](O)C[C@H](O[C@H]3[C@@H](O)C[C@H](O[C@H]4CC[C@@]5(C)[C@H](CC[C@@H]6[C@@H]5C[C@@H](O)[C@]5(C)[C@@H](C7=CC(=O)OC7)CC[C@]65O)C4)O[C@@H]3C)O[C@@H]2C)C[C@H](O)[C@@H]1O` [digoxin], in data set [6], the solubilization in water result was “improved solubilization”.
For the compound `CC(C(=O)O)c1ccc(-c2ccccc2)c(F)c1` (stereo not shown) [flurbiprofen], the solubilization in water entry in data set [6] is “improved solubilization”.
Consider `COc1ccc2c(c1)c(CC(=O)O)c(C)n2C(=O)c1ccc(Cl)cc1` [indomethacin], for which the solubilization in water result in data set [6] was “improved solubilization”.
As to `O=C1NC(=O)C(c2ccccc2)(c2ccccc2)N1` [phenytoin], in data set [7], the dissolution and absorption result is “Improvements”. Besides, the solubilization in water entry in data set [6] is given as “improved solubilization”.
Take `C[C@]12C=CC(=O)C=C1CC[C@@H]1[C@@H]2[C@@H](O)C[C@@]2(C)[C@H]1CC[C@]2(O)C(=O)CO` [prednisolone]: the solubilization in water entry in data set [6] was “improved solubilization”.
Regarding `CC(=O)[C@H]1CC[C@H]2[C@@H]3CCC4=CC(=O)CC[C@]4(C)[C@H]3CC[C@]12C` [progesterone], the solubilization in water entry in data set [6] is on record as “improved solubilization”.
In the case of `C[C@]12CC[C@H]3[C@@H](CCC4=CC(=O)CC[C@@]43C)[C@@H]1CC[C@@H]2O` [testosterone], the solubilization in water entry in data set [6] is given as “improved solubilization”.
For the compound `OC[C@H]1O[C@@H]2O[C@H]3[C@H](O)[C@@H](O)[C@@H](O[C@H]4[C@H](O)[C@@H](O)[C@@H](O[C@H]5[C@H](O)[C@@H](O)[C@@H](O[C@H]6[C@H](O)[C@@H](O)[C@@H](O[C@H]7[C@H](O)[C@@H](O)[C@@H](O[C@H]8[C@H](O)[C@@H](O)[C@@H](O[C@H]1[C@H](O)[C@H]2O)O[C@@H]8CO)O[C@@H]7CO)O[C@@H]6CO)O[C@@H]5CO)O[C@@H]4CO)O[C@@H]3CO` [β-cyclodextrin], the nephrotoxicity result in data set [8] is “nephrotoxicity”. Also, the aqueous solubility result in data set [6] (25° C.) was “about 1.8 % w/v”.
With `OC[C@H]1O[C@@H]2O[C@H]3[C@H](O)[C@@H](O)[C@@H](O[C@H]4[C@H](O)[C@@H](O)[C@@H](O[C@H]5[C@H](O)[C@@H](O)[C@@H](O[C@H]6[C@H](O)[C@@H](O)[C@@H](O[C@H]7[C@H](O)[C@@H](O)[C@@H](O[C@H]8[C@H](O)[C@@H](O)[C@@H](O[C@H]9[C@H](O)[C@@H](O)[C@@H](O[C@H]1[C@H](O)[C@H]2O)O[C@@H]9CO)O[C@@H]8CO)O[C@@H]7CO)O[C@@H]6CO)O[C@@H]5CO)O[C@@H]4CO)O[C@@H]3CO` [γ-cyclodextrin], in data set [6] (Brewster et al), the “effect on the water solubility of carbamazepine” value is “significantly enhance”.
